These results are taken from publication PMC6920566 (Journal of molecular biology, 2019).

The subject of this assay is MDA-MB-231 cells. Briefly: Fluorescence microscopy of A488-pHLIP cellular interaction. It counts as cell-based, human.

With “H2N-GCEQNPIYWARYADWLF-TTPLLLLDLALLVDADEGTG-CONH2 [A488-pHLIP]”, the “A488 fluorescence of cells (microscopy)” value is given as “large increase in A488 fluorescence intensity” (pH 5.0, absence of divalent cations); “significant increase in A488 fluorescence intensity” (pH 7.4, 1.8 mM Ca2+); “No significant fluorescence” (pH 7.4, absence of divalent cations, washed before imaging).
